Test results published in patent publication US11952387B2, “Bicyclic heteroaromatic ring derivative” (priority 2018, dated 2024).

Tested on: HRV14
Test: Inhibitory activity against human rhinovirus infection and replication (quantitative real-time PCR)
Assay type: cell-based
Details: Human rhinovirus sp., MRC5; 100 nmol/L test compound; MRC-5 cells infected with HRV14 at MOI=0.2; 48 hours; viral load normalized to 18s rRNA; read-out: Percent Inhibition
Outline: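 Near-confluent MRC-5 cells were pretreated 30 min with compound at 100 or 1000 nmol/L, then infected with HRV14 (MOI 0.2) in compound-containing medium (2% FBS, 30 mmol/L MgCl2) and cultured 48 h at 35 °C. HRV14 RNA by qRT-PCR, normalized to 18S rRNA; percent inhibition versus untreated infected cells.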

| SMILES | inhibition at 0.1 µM [%] |
| --- | --- |
| COc1ccc(-c2c(C)nc3sc(C(C)(C)O)nn23)cc1S(=O)(=O)N[C@H]1CC[C@H](O)CC1 [Example 1-1] | 50 to 80 |
| COc1ccc(-c2c(C)nc3sc(C(C)(C)O)nn23)cc1S(C)(=O)=O [Example 2-13] | ≤ 50 |
| COc1ccc(-c2c(C)nc3sc(C(C)(C)O)nn23)cc1S(=O)(=O)Cc1ccc(C#N)cc1 [Example 2-93] | 50 to 80 |
| CCOC(=O)C(C)(C)c1nn2c(-c3ccc(OC)c(S(=O)(=O)N[C@H]4CC[C@@H](O)CC4)c3)c(C)nc2s1 [Example 1-22] | > 80 |
| COc1ccc(-c2c(C)nc3sc(C(C)(C)O)nn23)cc1S(=O)(=O)NCC(C)(C)O [Example 21-7] | 50 to 80 |
| C=C(C)c1cn2c(-c3ccc(OC)c(S(=O)(=O)N[C@H]4CC[C@@H](O)CC4)c3)c(C)nc2s1 [Example 25] | 50 to 80 |
| Cc1nc2sc(C(C)(C)O)nn2c1-c1ccc(C(F)(F)F)c(S(=O)(=O)C(C)(C)C(=O)O)c1 [Example 5] | ≤ 50 |
| COc1ccc(-c2c(C)nc3sc(C(C)(C)O)nn23)cc1S(=O)(=O)C(C)(C)C [Example 2-34] | > 80 |
| COc1ccc(-c2c(C)nc3sc(C(C)(C)O)nn23)cc1S(=O)(=O)C(C)(C)CO [Example 4-1] | > 80 |
| COc1ccc(-c2c(C)nc3sc(C(C)(C)O)nn23)cc1S(=O)(=O)Cc1ccccc1 [Example 2-91] | > 80 |
| COc1ccc(-c2c(C)nc3sc(C(C)(C)O)nn23)cc1S(=O)(=O)CCO [Example 2-12] | ≤ 50 |
| CCOc1ccc(-c2c(C)nc3sc(C(C)(C)O)nn23)cc1S(=O)(=O)CC(C)(C)O [Example 2-57] | 50 to 80 |
| COc1ccc(-c2c(C)nc3sc(C(O)(C4CC4)C4CC4)nn23)cc1S(=O)(=O)[C@H]1C[C@](C)(O)C1 [Example 2-82] | > 80 |
| COc1ccc(-c2c(C)nc3sc(C(C)(C)O)nn23)cc1S(=O)(=O)C1CN(C(=O)OC(C)(C)C)C1 [Example 2-51] | > 80 |
| COc1ccc(-c2c(C)nc3sc(C(O)(C4CC4)C4CC4)nn23)cc1S(=O)(=O)CC(C)(C)C#N [Example 2-98] | > 80 |
| COc1ccc(-c2c(C)nc3sc(C(C)(C)O)nn23)cc1S(=O)(=O)Cc1cccnc1 [Example 2-94] | 50 to 80 |
| COc1ccc(-c2c(C)nc3sc(C(C)(C)O)cn23)cc1S(=O)(=O)N[C@H]1CC[C@@H](O)CC1 [Example 21-1] | ≤ 50 |
| COc1ccc(-c2c(C)nc3sc(C4(C#N)CC4)nn23)cc1S(=O)(=O)NC(C)(C)CO [Example 1-39] | ≤ 50 |
| Cc1nc2sc(C(C)(C)O)nn2c1-c1ccc(C(F)(F)F)c(S(=O)(=O)CCC(C)(C)O)c1 [Example 2-45] | ≤ 50 |
| COc1ccc(-c2c(C)nc3sc(C(C)(C)O)nn23)cc1S(=O)(=O)N[C@H]1C[C@H](O)C1 [Example 21-8] | 50 to 80 |
| COc1ccc(-c2c(C)nc3sc(C(C)(C)O)nn23)cc1S(=O)(=O)C1CCC(O)CC1 (stereo not shown) [Example 14] | ≤ 50 |
| COc1ccc(-c2c(C)nc3sc(C4(O)CCCC4)cn23)cc1S(=O)(=O)N[C@H]1CC[C@@H](O)CC1 [Example 1-44] | ≤ 50 |
| [2H]C([2H])([2H])C(O)(CS(=O)(=O)c1cc(-c2c(C)nc3sc(C(C)(C)O)nn23)ccc1OC)C([2H])([2H])[2H] [Example 2-53] | 50 to 80 |
| COc1ccc(-c2c(C)nc3sc(C(C)(C)O)nn23)cc1S(=O)(=O)C(C)C [Example 2-25] | ≤ 50 |
| Cc1nc2sc(C(C)(C)O)nn2c1-c1ccc(C(F)(F)F)c(S(=O)(=O)CC2(C)COC2)c1 [Example 2-26] | > 80 |

| SMILES | inhibition at 0.1 µM [%] |
| --- | --- |
| Cc1nc2sc(C(C)(C)C)cn2c1-c1ccc(Cl)c(S(=O)(=O)N[C@H]2CC[C@@H](O)CC2)c1 [Example 1-4] | > 80 |
| Cc1nc2sc(C(C)(C)O)nn2c1-c1ccc(C(F)F)c(S(=O)(=O)CC(C)(C)O)c1 [Example 2-37] | 50 to 80 |
| Cc1nc2sc(C(C)(C)O)nn2c1-c1ccc(C(F)(F)F)c(S(=O)(=O)N[C@]2(C)C[C@H](O)C2)c1 [Example 2-19] | > 80 |
| Cc1nc2sc(C(C)(C)O)cn2c1-c1ccc(N(C)C)c(S(=O)(=O)N[C@H]2CC[C@@H](O)CC2)c1 [Example 2-5] | ≤ 50 |
| COc1ccc(-c2c(C)nc3sc(C(C)(C)O)nn23)cc1S(=O)(=O)NC[C@H]1C[C@H](O)C1 [Example 21-6] | ≤ 50 |
| COc1ccc(-c2c(C)nc3sc(C(C)(C)O)nn23)cc1S(=O)(=O)NC12CCC(O)(CC1)CC2 [Example 21-11] | ≤ 50 |
| Cc1nc2sc(C(C)(C)O)nn2c1-c1ccc(C(F)(F)F)c(S(=O)(=O)CC2(CO)COC2)c1 [Example 2-35] | 50 to 80 |
| COc1ccc(-c2c(C)nc3sc(C(C)C)cn23)cc1S(=O)(=O)N[C@H]1CC[C@@H](O)CC1 [Example 1-46] | > 80 |
| COc1ccc(-c2c(C)nc3sccn23)cc1S(=O)(=O)Nc1ccc(F)cc1 [Example 1-52] | ≤ 50 |
| COc1ccc(-c2c(C)nc3sc(C(C)(C)O)nn23)cc1S(=O)(=O)CC(C)(O)CO (stereo not shown) [Example 2-59] | ≤ 50 |
| COc1ccc(-c2c(C)nc3sc(C(C)(C)O)nn23)cc1S(=O)(=O)NC(C)(C)CO [Example 1-36] | 50 to 80 |
| COc1ccc(-c2c(C)nc3sc(C(C)(C)O)nn23)cc1S(=O)(=O)Nc1ccc(O)cc1 [Example 2-86] | > 80 |
| Cc1ccc(-c2c(C)nc3sc(C(C)(C)O)nn23)cc1S(=O)(=O)CC(C)(C)O [Example 2-39] | > 80 |
| COc1ccc(-c2c(C)nc3sc(C(C)(C)O)nn23)cc1S(=O)(=O)CC(C)(C)C#N [Example 2-60] | ≤ 50 |
| COc1ccc(-c2c(C)nc3sc(C)cn23)cc1S(=O)(=O)Nc1ccc(F)cc1 [Example 1-51] | 50 to 80 |
| Cc1nc2sc(C(C)(C)O)nn2c1-c1ccc(C(F)(F)F)c(S(=O)(=O)N[C@]2(C)C[C@@H](O)C2)c1 [Example 2-18] | > 80 |
| COc1ccc(-c2c(C)nc3sc(C(C)(C)O)nn23)cc1S(=O)(=O)N[C@H]1C[C@H](CO)C1 [Example 21-5] | ≤ 50 |
| Cc1nc2sc(C(C)(C)O)nn2c1-c1ccc(C(F)(F)F)c(S(=O)(=O)C(C)(C)C(N)=O)c1 [Example 6-2] | ≤ 50 |
| Cc1nc2sc(C(C)(C)O)nn2c1-c1ccc(C(F)(F)F)c(S(=O)(=O)NC2(CO)CC(F)(F)C2)c1 [Example 2-32] | > 80 |
| COc1ncc(-c2c(C)nc3sc(C(C)(C)CO)nn23)cc1S(=O)(=O)N[C@H]1CC[C@@H](O)CC1 [Example 20-2] | ≤ 50 |
| [2H]C([2H])([2H])Oc1ccc(-c2c(C)nc3sc(C(C)(C)O)cn23)cc1S(=O)(=O)N[C@H]1CC[C@@H](O)CC1 [Example 2-88] | ≤ 50 |
| COc1ccc(-c2c(C)nc3sc(C(O)(C4CC4)C4CC4)nn23)cc1S(=O)(=O)C1CN(C(=O)OC(C)(C)C)C1 [Example 2-84] | > 80 |
| COc1ccc(-c2c(C)nc3sc(C(C)(C)O)cn23)cc1S(=O)(=O)Nc1ccccc1O [Example 2-81] | > 80 |
| [2H]C([2H])([2H])Oc1ccc(-c2c(C)nc3sc(C(C)(C)O)nn23)cc1S(=O)(=O)N[C@H]1CC[C@@H](O)CC1 [Example 2-89] | 50 to 80 |
